According to patent US9561228B2 (Celgene Avilomics Research, Inc., priority 2013, dated 2017):

Assays:
[1] = system: ERK1/2 phosphorylation of p90RSK in HCT116 cells; test: Detection of total and phospho-RSK by MSD ELISA (HCT116); type: cell-based; settings: Homo sapiens, HCT-116, read-out: ERK1/ERK2 PRSK HCT116 EC50
Procedure, shortened: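 ERK1/2 activity read in cells as p90RSK phosphorylation: lysates from HCT116 cells given compound for 2 h at 37° C were captured on MSD plates. Detection used a pSer380 RSK or a total RSK antibody with SulfoTag secondaries.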

[2] = system: ERK1/2 phosphorylation of p90RSK in HT29 cells; test: pRSK MSD Assay in HT29 cells; type: cell-based; settings: Homo sapiens, HT-29, read-out: ERK1/ERK2 PRSK MSD HT29 EC50
Procedure, shortened: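 Phospho-RSK level, read by electrochemiluminescence on RSK-antibody-coated MSD plates with a phospho-RSK/Sulfo-tag detection pair, reports cellular ERK1/2 activity. HT29 cells, kept overnight in 0.1% FBS medium, were exposed to compound for 120 min at 37° C before lysis.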

Row | Compound | EC50 [1] [nM] | EC50 [2] [nM]
1 | C=CC(=O)Nc1cc(C)ccc1Nc1nc(NC2CCC(=O)NC2)ncc1C(F)(F)F (racemic) [Compound I-368, Rac-N-(5-methyl-2-((2-((6-oxopiperidin-3-yl)amino)-5-(trifluoromethyl)pyrimidin-4-yl)amino)phenyl)acrylamide] | 101 to 500 | 501 to 999
2 | C=CC(=O)Nc1cc(C)ccc1Nc1nc(Nc2cc(P(C)(C)=O)ncc2C)ncc1C(F)(F)F [Compound I-343, N-(2-((2-((2-(dimethylphosphoryl)-5-methylpyridin-4-yl)amino)-5-(trifluoromethyl)pyrimidin-4-yl)amino)-5-methylphenyl)acrylamide] | 101 to 500 | 101 to 500
3 | C#CC(=O)Nc1cc(C)ccc1Nc1nc(Nc2cc(OC)ncc2C)ncc1C(F)(F)F [Compound I-345, N-(2-((2-((2-methoxy-5-methylpyridin-4-yl)amino)-5-(trifluoromethyl)pyrimidin-4-yl)amino)-5-methylphenyl)propiolamide] | > 1000 | > 1000
4 | C=CC(=O)Nc1cc(C)ccc1Nc1nc(Nc2cnc(OC)cc2C)ncc1C(F)(F)F [Compound I-350, N-(2-((2-((6-methoxy-4-methylpyridin-3-yl)amino)-5-(trifluoromethyl)pyrimidin-4-yl)amino)-5-methylphenyl)acrylamide] | > 1000 | > 1000
5 | C=CC(=O)Nc1cc(C)ccc1Nc1nc(Nc2cc(OC)ncc2Cl)ncc1C(F)(F)F [Compound I-351, N-(2-((2-((5-chloro-2-methoxypyridin-4-yl)amino)-5-(trifluoromethyl)pyrimidin-4-yl)amino)-5-methylphenyl)acrylamide] | 501 to 999 | 101 to 500
6 | C=CC(=O)Nc1cc(C)ccc1Nc1nc(Nc2cc(OCC)ncc2C)ncc1C(F)(F)F [Compound I-358, N-(2-((2-((2-ethoxy-5-methylpyridin-4-yl)amino)-5-(trifluoromethyl)pyrimidin-4-yl)amino)-5-methylphenyl)acrylamide] | 501 to 999 | 101 to 500
7 | C=CC(=O)Nc1cc(C)c(F)cc1Nc1nc(Nc2cc(OC)ncc2C)ncc1C(F)(F)F [Compound I-366, N-(4-fluoro-2-((2-((2-methoxy-5-methylpyridin-4-yl)amino)-5-(trifluoromethyl)pyrimidin-4-yl)amino)-5-methylphenyl)acrylamide] | > 1000 | > 1000
8 | C=CC(=O)Nc1c(Nc2nc(Nc3cc(OC)ncc3C)ncc2C(F)(F)F)ccc(C)c1F [Compound I-367, N-(2-fluoro-6-((2-((2-methoxy-5-methylpyridin-4-yl)amino)-5-(trifluoromethyl)pyrimidin-4-yl)amino)-3-methylphenyl)acrylamide] | 501 to 999 | 101 to 500
9 | C=CC(=O)Nc1cc(C)ccc1Nc1nc(Nc2cc(OC(C)C)ncc2C)ncc1C(F)(F)F [Compound I-369, N-(2-((2-((2-isopropoxy-5-methylpyridin-4-yl)amino)-5-(trifluoromethyl)pyrimidin-4-yl)amino)-5-methylphenyl)acrylamide] | > 1000 | > 1000
10 | C=CC(=O)Nc1cc(C)ccc1Nc1nc(Nc2c[nH]c(=O)cc2C)ncc1C(F)(F)F [Compound I-370, N-(5-methyl-2-((2-((4-methyl-6-oxo-1,6-dihydropyridin-3-yl)amino)-5-(trifluoromethyl)pyrimidin-4-yl)amino)phenyl)acrylamide] | 501 to 999 | 501 to 999
11 | C=CC(=O)Nc1cc(C)ccc1Nc1nc(Nc2nc(OC)nc(OC)n2)ncc1C(F)(F)F [Compound I-371, N-(2-((2-((4,6-dimethoxy-1,3,5-triazin-2-yl)amino)-5-(trifluoromethyl)pyrimidin-4-yl)amino)-5-methylphenyl)acrylamide] | > 1000 | 101 to 500
12 | C=CC(=O)Nc1cc(C)ccc1Nc1nc(Nc2cc(OC)nnc2OC)ncc1C(F)(F)F [Compound I-372, N-(2-((2-((3,6-dimethoxypyridazin-4-yl)amino)-5-(trifluoromethyl)pyrimidin-4-yl)amino)-5-methylphenyl)acrylamide] | 101 to 500 | < 100
13 | C=CC(=O)Nc1cc(C)ccc1Nc1nc(Nc2cc(-c3nc[nH]n3)ccc2C)ncc1C(F)(F)F [Compound I-373, N-(5-methyl-2-((2-((2-methyl-5-(1H-1,2,4-triazol-3-yl)phenyl)amino)-5-(trifluoromethyl)pyrimidin-4-yl)amino)phenyl)acrylamide] | 501 to 999 | 101 to 500
14 | C=CC(=O)Nc1cc(C)ccc1Nc1nc(Nc2ccc3ocnc3c2)ncc1C(F)(F)F [Compound I-375, N-(2-((2-(benzo[d]oxazol-5-ylamino)-5-(trifluoromethyl)pyrimidin-4-yl)amino)-5-methylphenyl)acrylamide] | > 1000 | > 1000
15 | C=CC(=O)Nc1cc(C)ccc1Nc1nc(Nc2cc(-c3c[nH]cn3)ccc2C)ncc1C(F)(F)F [Compound I-378, N-(2-((2-((5-(1H-imidazol-4-yl)-2-methylphenyl)amino)-5-(trifluoromethyl)pyrimidin-4-yl)amino)-5-methylphenyl)acrylamide] | > 1000 | 101 to 500
16 | C=CC(=O)Nc1cc(CN2CCN(C(C)=O)CC2)ccc1Nc1nc(Nc2nc(OC)ncc2C)ncc1C(F)(F)F [Compound I-382, N-(5-((4-acetylpiperazin-1-yl)methyl)-2-((2-((2-methoxy-5-methylpyrimidin-4-yl)amino)-5-(trifluoromethyl)pyrimidin-4-yl)amino)phenyl)acrylamide] | 501 to 999 | 101 to 500
17 | C=CC(=O)Nc1cc(CN2CCN(S(C)(=O)=O)CC2)ccc1Nc1nc(Nc2nc(OC)ncc2C)ncc1C(F)(F)F [Compound I-383, N-(2-((2-((2-methoxy-5-methylpyrimidin-4-yl)amino)-5-(trifluoromethyl)pyrimidin-4-yl)amino)-5-((4-(methylsulfonyl)piperazin-1-yl)methyl)phenyl)acrylamide] | 101 to 500 | < 100
18 | C=CC(=O)Nc1cc(CN2CCN(C(=O)CO)CC2)ccc1Nc1nc(Nc2cc(OC)ncc2C)ncc1C(F)(F)F [Compound I-385, N-(5-((4-(2-hydroxyacetyl)piperazin-1-yl)methyl)-2-((2-((2-methoxy-5-methylpyridin-4-yl)amino)-5-(trifluoromethyl)pyrimidin-4-yl)amino)phenyl)acrylamide] | < 100 | < 100
19 | C=CC(=O)Nc1cc(CN2CCN(C(=O)CO)CC2)ccc1Nc1nc(Nc2nc(OC)ncc2C)ncc1C(F)(F)F [Compound I-386, N-(5-((4-(2-hydroxyacetyl)piperazin-1-yl)methyl)-2-((2-((2-methoxy-5-methylpyrimidin-4-yl)amino)-5-(trifluoromethyl)pyrimidin-4-yl)amino)phenyl)acrylamide] | 501 to 999 | 501 to 999
20 | C=CC(=O)Nc1cc(OCC(N)=O)ccc1Nc1nc(NC2CCOCC2)ncc1C(F)(F)F [Compound I-387, N-(5-(2-amino-2-oxoethoxy)-2-((2-((tetrahydro-2H-pyran-4-yl)amino)-5-(trifluoromethyl)pyrimidin-4-yl)amino)phenyl)acrylamide] | 101 to 500 | 101 to 500
